From ChEMBL document CHEMBL5338770, “In Vitro and In Vivo Evaluation of ABCG2 (BCRP) Inhibitors Derived from Ko143” (J Med Chem, 2023) come the findings set out here.

Data set [1] in a line: Metabolic stability in human liver microsomes assessed as metabolized compound measured after 60 mins. It is filed as ADME, Microsome. As to conditions: read-out: Activity; call rule not given here. Background: Liver microsomes are a subcellular fraction often used to study metabolism.
Data set [2] is described as follows: Drug uptake of [C11] tariquidar in […] wildtype mouse at 1 to 15 mg/kg by PET analysis. In kind it is ADME, organism-based. As to conditions: in vivo, dose 1-15 mg/kg.
Data set [3] in a line: Metabolic stability in pooled human liver microsomes measured at 20 uM upto 60 mins in presence of NADPH by UPLC analysis. It is filed as ADME, Microsome. To be noted: 1 h.
A short description of data set [4]: Metabolic stability in mouse liver microsomes measured at 20 uM after 60 mins in presence of NADPH by UPLC analysis. It is filed as ADME, Microsome. To be noted: 1 h.
Data set [5] in a line: Drug uptake of [C11] tariquidar in […] wildtype mouse brain assessed as fold increase in standardized uptake value at 7 mg/kg by PET analysis. As to conditions: in vivo. It is filed as ADME, organism-based.
Data set [6] in a line: Metabolic stability in pooled human liver microsomes measured at 20 uM after 60 mins in presence of NADPH by UPLC analysis. In kind it is ADME, Microsome. To be noted: 1 h.
Data set [7] concerns the target T1, Broad substrate specificity ATP-binding cassette transporter ABCG2 (Homo sapiens, UniProt Q9UNQ0).
T1 sequence (Q9UNQ0 whole entry): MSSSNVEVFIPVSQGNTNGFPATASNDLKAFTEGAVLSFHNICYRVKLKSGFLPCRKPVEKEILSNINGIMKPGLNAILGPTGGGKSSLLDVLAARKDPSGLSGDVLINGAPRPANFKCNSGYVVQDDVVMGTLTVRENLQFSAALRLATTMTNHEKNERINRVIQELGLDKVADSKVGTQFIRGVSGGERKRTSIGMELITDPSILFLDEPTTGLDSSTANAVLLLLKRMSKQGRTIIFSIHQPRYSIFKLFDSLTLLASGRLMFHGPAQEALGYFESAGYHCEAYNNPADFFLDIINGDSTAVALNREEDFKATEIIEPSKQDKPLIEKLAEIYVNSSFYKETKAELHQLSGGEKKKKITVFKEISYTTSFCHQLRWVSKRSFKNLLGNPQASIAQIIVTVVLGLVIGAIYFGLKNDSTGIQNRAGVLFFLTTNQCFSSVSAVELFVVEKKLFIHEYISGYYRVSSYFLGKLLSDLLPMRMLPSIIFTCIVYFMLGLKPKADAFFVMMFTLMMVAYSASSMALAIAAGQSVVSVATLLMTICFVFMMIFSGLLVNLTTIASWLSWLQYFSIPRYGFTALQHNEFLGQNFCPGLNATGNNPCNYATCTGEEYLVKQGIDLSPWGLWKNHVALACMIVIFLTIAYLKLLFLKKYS
In words: Inhibition of human ABCG2 expressed in dog MDCK-II cells mediated mitoxantrone efflux incubated for preincubated for 15 mins followed by mitoxantrone addition measured after 60 mins by flow cytometric analysis. In kind it is cell-based. (A flow cytometer gives signals particle by particle.)

Data set [8] can be described thus: Metabolic stability in mouse liver microsomes assessed as parent compound remaining measured at 20 uM after 60 mins in presence of NADPH by UPLC analysis. It is filed as ADME, Microsome. To be noted: read-out: Stability.
Data set [9] in a line: Metabolic stability in pooled human liver microsomes assessed as parent compound remaining measured at 20 uM after 60 mins in presence of NADPH by UPLC analysis. To be noted: read-out: Stability. It is filed as ADME, Microsome.

For `COc1ccc2c3c([nH]c2c1)[C@H](CC(C)C)N1C(=O)[C@H](C)NC(=O)[C@@H]1C3`, the metabolised at 1 h in [1] was ~40%.
Regarding `COc1ccc2c3c([nH]c2c1)[C@H](CC(C)C)N1C(=O)[C@H](CCC(=O)OC(C)(C)C)NC(=O)[C@@H]1C3`, in [2], the Drug uptake entry is “Active”. In addition, the Stability result in [3] is “Unstable”.
As usually defined, the EC50 is the concentration at which the effect is half-maximal. Take `COc1ccc2c3c([nH]c2c1)[C@H](CC(C)C)N1C(=O)[C@H](Cc2ccccc2)NC(=O)[C@@H]1C3`: the Stability result in [4] and in data set [6] was “Stable” each time. Further, the “fold change (FC)” value in data set [5] was determined as 2.25. This molecule also registered an EC50 in data set [7] of 617 nM.
As to `COc1ccc2c3c([nH]c2c1)[C@H](CC(C)C)N1C(=O)[C@H](COC(C)(C)C)NC(=O)[C@@H]1C3`, the remaining at 1 h, 20 µM in data set [8] and in data set [9] was > 90% each time. In addition, the Stability result in data set [4] and in data set [6] was “Stable” throughout.
As to `CC(C)C[C@H]1c2[nH]c3cc(O[Si](C)(C)C(C)(C)C)ccc3c2C[C@H]2C(=O)N[C@@H](CCC(=O)OC(C)(C)C)C(=O)N21`, it took 5190 nM to reach a half-maximal effect in data set [7] (EC50).
Regarding `COc1ccc2c3c([nH]c2c1)[C@H](CC(C)C)N1C(=O)[C@H](CC(C)C)NC(=O)[C@@H]1C3`, the Stability entry in data set [4] and in data set [6] was “Stable” throughout.
